Test results reported in publication PMC5829251, “NAD^+ analog reveals PARP-1 substrate-blocking mechanism and allosteric communication from catalytic center to DNA-binding domains” (Nature Communications, 2018).

Experiments:
PARP-1 ΔHD = experiment: Fluorescence polarization DNA competition assay, PARP-1 ΔHD; assay type: binding, human; conditions: 40 nM PARP-1 ΔHD, 20 nM labeled DNA, BAD 500 μM
Protocol: For the DNA competition assay, 40 nM PARP-1 WT, or PARP-1 ΔHD, was incubated with 20 nM of dumbbell DNA with a central nick carrying an internal fluorescent FAM group (5′-GCT GAG C/FAMT/T CTGGTGAAGCTCAGCTCGCGGCAGCTGGTGCTGCCGCGA-3′) for 30 min at RT in 12 mM Hepes pH 8.0, 60 mM KCl, 8 mM MgCl2, 4% glycerol, 5.7 mM beta-mercaptoethanol, 0.05 mg per ml bovine serm albumin with or without BAD or benzamide (500 μM). A competitor unlabeled DNA of the same sequence was added at 100 nM and FP was measured over time on a VictorV plate reader (Perkin Elmer). For the DNA affinity measurement assay, increasing concentrations of PARP-1 WT were incubated for 30 min at RT with 5 nM of dumbbell DNA probe carrying a nick (described above) in the absence or presence of BAD or benzamide (100 μM) in the following buffer: 12 mM Hepes pH 8.0, 250 mM NaCl, 4% glycerol, 5.7 mM beta-mercaptoethanol, 0.05 mg per ml bovine serum albumin.

[1] = target: T1, PARP-1 double mutant D766/D770A (Homo sapiens, UniProt P09874, D766A/D770A); experiment: DSF, full-length PARP-1 D766/D770A; assay type: binding; conditions: BAD 1250 μM
T1 construct: Full-length PARP-1 WT (residues 1–1014) was cloned in pET28 vector and site-directed mutagenesis was performed; made in house; host or cells: E. coli
T1 sequence (P09874 whole entry D766A/D770A, the tested form may be a part): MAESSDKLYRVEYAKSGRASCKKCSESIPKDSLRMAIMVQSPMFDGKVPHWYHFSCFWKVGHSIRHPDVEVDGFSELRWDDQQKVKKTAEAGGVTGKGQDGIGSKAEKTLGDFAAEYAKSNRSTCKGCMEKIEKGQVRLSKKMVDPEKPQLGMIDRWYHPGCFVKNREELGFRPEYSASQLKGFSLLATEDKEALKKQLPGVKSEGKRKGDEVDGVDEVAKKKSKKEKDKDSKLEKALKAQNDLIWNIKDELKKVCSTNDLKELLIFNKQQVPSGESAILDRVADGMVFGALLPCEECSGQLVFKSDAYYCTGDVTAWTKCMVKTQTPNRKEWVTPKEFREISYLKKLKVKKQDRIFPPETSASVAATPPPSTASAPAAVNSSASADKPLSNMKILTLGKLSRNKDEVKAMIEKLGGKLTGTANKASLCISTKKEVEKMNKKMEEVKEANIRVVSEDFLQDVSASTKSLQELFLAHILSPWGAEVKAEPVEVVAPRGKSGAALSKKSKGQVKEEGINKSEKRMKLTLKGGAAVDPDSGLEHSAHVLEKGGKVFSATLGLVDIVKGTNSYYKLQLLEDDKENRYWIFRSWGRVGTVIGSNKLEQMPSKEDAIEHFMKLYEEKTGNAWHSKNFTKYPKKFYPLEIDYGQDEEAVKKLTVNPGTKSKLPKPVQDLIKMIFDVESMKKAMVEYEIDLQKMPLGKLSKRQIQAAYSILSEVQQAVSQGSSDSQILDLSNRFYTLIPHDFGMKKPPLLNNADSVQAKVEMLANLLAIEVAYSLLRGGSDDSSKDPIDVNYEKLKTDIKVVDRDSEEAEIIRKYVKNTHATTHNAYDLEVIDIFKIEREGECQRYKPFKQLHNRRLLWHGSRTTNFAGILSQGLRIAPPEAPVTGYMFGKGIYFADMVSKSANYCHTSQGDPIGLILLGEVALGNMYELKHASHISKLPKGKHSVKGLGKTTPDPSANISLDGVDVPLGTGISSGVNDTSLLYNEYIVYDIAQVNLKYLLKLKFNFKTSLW
Protocol: DSF experiments were performed as described, [13] using 5 µM protein, 2.5 µM DNA when indicated and various concentrations of compound (BAD, carba-NAD^+, benzamide, and ADP-ribose) as indicated in Fig. 1 and Fig. 3. Experiments were performed on a Roche LightCycler 480 RT-PCR. Reactions including DNA were performed with a 26- or 28-base pair (bp) unphosphorylated oligonucleotide for PARP-1, a 28-bp 5´-phosphorylated (5´P) oligonucleotide for PARP-2, and a 47-bp oligonucleotide including a central 5´P nick for PARP-3^13 in the following buffer: 25 mM Hepes pH 8.0, 150 mM NaCl, 1 mM EDTA, and 0.1 mM TCEP. Reactions with PARP-3 were conducted at lower ionic strength to allow binding to DNA as described (25 mM Hepes pH 8.0, 50 mM NaCl, 1 mM EDTA and 0.1 mM TCEP)[13]. ΔTM values were calculated by subtracting the TM determined for the protein in the absence of compound from the TM determined in the presence of compound. Experiments were performed in triplicate and a Boltzmann sigmoid was fit to the data to determine the TM values (KaleidaGraph).

## NC(=O)c1cccc(C2OC(COP(=O)(O)OP(=O)(O)OCC3OC(n4cnc5c(N)ncnc54)C(O)C3O)C(O)C2O)c1 (stereo not drawn) [BAD, benzamide adenine dinucleotide]
PARP-1 ΔHD
  release of full-length PARP-1 ΔHD from the labeled DNA: did not prevent the rapid release
[1]; Figure 3a, no DNA, TM without BAD 45.94
  TM: 48.5 °C
[1]; did not require the presence of DNA
  TM change in the presence of BAD: increase in TM
